Where a chain is given by its changes, count along the chain named.
How the values were obtained:
Assay in all cases: X-ray crystal structure, […] A
Type in all cases: binding
bMGL [1] = biological target: T1, bMGL (Bacillus sp. H-257, UniProt P82597); conditions: covalent; Ser-97 phosphonate adduct, 4-nitrophenol released; MES/imidazole pH 6.5
T1 construct: cap Asn-120-Thr-164; catalytic triad Ser-97, Asp-196, His-226
T1 sequence (P82597 1-250): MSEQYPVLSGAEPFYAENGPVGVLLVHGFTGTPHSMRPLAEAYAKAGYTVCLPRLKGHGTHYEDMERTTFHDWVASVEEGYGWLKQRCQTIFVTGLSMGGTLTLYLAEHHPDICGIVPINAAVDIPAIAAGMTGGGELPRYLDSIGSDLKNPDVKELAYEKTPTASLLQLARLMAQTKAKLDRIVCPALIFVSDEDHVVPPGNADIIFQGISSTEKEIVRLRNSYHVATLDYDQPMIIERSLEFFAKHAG

bMGL [2] = biological target: T1, bMGL; conditions: covalent; Ser-97 phosphonate adduct, 4-nitrophenol released; citric acid pH 5.0
bMGL [3] = biological target: T1, bMGL; conditions: covalent; Ser-97 phosphonate adduct, 4-nitrophenol released; citric acid pH 5.2
bMGL [4] = biological target: T2, bMGL (Bacillus sp. H-257, UniProt P82597, D196N); conditions: inactive variant; co-crystallised and soaked; HEPES pH 6.9; active site, chain A only; noncovalent
T2 construct: cap Asn-120-Thr-164; catalytic triad Ser-97, Asp-196, His-226
T2 sequence (P82597 1-250 D196N): T1 sequence (P82597 1-250) with D196N

With `CCCCCCCCCCCCOP(=O)(CCCN=[N+]=[N-])Oc1ccc([N+](=O)[O-])cc1` (stereo not shown) [C12 ligand, dodecyl 4-nitrophenyl (3-azidopropyl)phosphonate] as the compound, how does the “X-ray crystal structure, 1.7 A” value (bMGL [1]) read?
The value was “both had the C12 ligand covalently bound in the active site”.

`CCCCCCCCCCCCCCCCOP(=O)(CCCN=[N+]=[N-])Oc1ccc([N+](=O)[O-])cc1` (stereo not shown) [C16 ligand] was tested. Which “X-ray crystal structure, 2.2 A” value (bMGL [2]) did it give?
Its value is “electron densities for the ligands bound to active site residue Ser-97 were observed”.

For `CCCCCCCCCCCCCCOP(=O)(CCCN=[N+]=[N-])Oc1ccc([N+](=O)[O-])cc1` (stereo not shown) [C14 ligand], which “X-ray crystal structure, 1.85 A” value (bMGL [3]) is on record?
Its value is “electron densities for the ligands bound to active site residue Ser-97 were observed”.

Which “X-ray crystal structure, 2.8 A” value (bMGL [4]) does the source give for `CCCCCCCCCCCC(=O)OCC(O)CO` (racemic) [1-LG, 1-lauroylglycerol] here?
The value was “we only interpreted the electron density of the bMGL(D196N)-1-LG crystal in chain A as substrate”.
